Experimental data: US12392768B2, “Methods for determining blood gas or metabolic parameters” (RADIOMETER MEDICAL APS, priority 2019, dated 2025)
Entries after “also recorded” stand apart in the source; their conditions may differ. Counter-ions that a name gives are not always drawn.

Legend:
platelets [1] = assay: Manual count of single platelets and platelet aggregates in heparinized blood with anti-platelet drug candidates (Example 1); settings: heparinized venous blood; for platelet count compared to LiHep and PicoSAM controls: L-Arginine 600 μM and 6 mM, dipyridamole 10 and 100 μM; for count of single platelets compared to EDTA reference / number of platelet aggregates compared to EDTA control: two concentration levels per drug
Description: Each experiment was conducted on a separate day with blood from one voluntary donor testing one anti-platelet drug candidate. For each experiment PICO70 syringe samplers (Radiometer Medical ApS) were prepared just before sample drawing. For “LiHep” (Liquid Heparin) conditions, PICO70 samplers were emptied of the gold ball and heparin brick and 15 μl of aqueous liquid balanced heparin comprising heparin lithium (Celsus Laboratories) and heparin sodium (Celsus Laboratories) (final heparin conc. 60 IU/mL blood) and 15 μl of the solvent of the tested drug were added. For “PicoSAM” conditions, unmodified PICO70 samplers (with gold ball and heparin brick) were used and 15 μl of the solvent of the respective tested drug was added. For “LiHep xxx drug” conditions, PICO70 samplers were emptied as described for LiHep and 15 μl of liquid balanced heparin (final heparin conc. 60 IU/mL blood) and 15 μl of the dissolved tested drug were added. For “PicoSAM xxx drug” conditions, unmodified PICO70 samplers (with gold ball and heparin brick) were used and 15 μl of the dissolved tested drug was added. […] 600 μM and 6 mM) and dipyridamole (Sigma, D9766; dissolved in 1:10 or 1:100 DMSO in saline, final conc. 10 and 100 μM). An EDTA tube (BD Vacutainer with spray-coated K2EDTA, 10 ml) and duplicate samples of all conditions of PICO70 syringe samplers were filled by drawing venous blood via a butterfly needle using a sealed VTC (vented tip cap) to fill the otherwise self-aspirating PICO70 samplers with 1.5 mL venous whole blood. Samplers were inverted 8 times immediately after drawing to insure proper anti-coagulation of the samples. The blood samples were mixed gently by hand (samplers without gold ball) or on a SAM mixer (Radiometer Medical ApS) for 15 minutes after drawing the sample. Mixed samples were fixed immediately with 10% formalin solution (1:1 dilution of blood in formalin) for at least 10 minutes and further diluted 1:10 in platelet dilution solution to hemolyze red blood cells (RBCs) to assessed manual platelet count using a hemocytometer. […] Single platelet counts were adjusted for dilution with liquid heparin and or dissolved drug solution to calculate single platelet concentrations.

platelets [2] = assay: Microscopic wet mount images of fixed blood samples, platelet aggregation (Example 2); type: cell-based; settings: 40x phase contrast, eptifibatide 20 μM added to heparin
Excerpt: Venous blood samples drawn, mixed and fixed with 10% formalin solution, as described before in Example 1 were used to prepare wet mounts on a glass slide and covered with a glass coverslip. Wet mount samples of fixed blood cells were then imaged with a Leica 750 microscope using a 40× phase-contrast air objective.

platelets [3] = assay: Manual platelet count versus EDTA reference (Example 4); type: cell-based; settings: for Mean Manual PLT count: Iloprost 1 μM in PicoSAM, EDTA reference
Description: For each experiment PICO70 syringe samplers (Radiometer Medical ApS) were prepared just before sample drawing. For “LiHep” (Liquid Heparin) conditions, PICO70 samplers were emptied of the gold ball and heparin brick and 15 μl of aqueous liquid balanced heparin comprising heparin lithium (Celsus Laboratories) and heparin sodium (Celsus Laboratories) (final heparin conc. 60 IU/mL blood) and 15 μl of the solvent of the tested drug were added. For “PicoSAM” conditions, unmodified PICO70 samplers (with gold ball and heparin brick) were used and 15 μl of the solvent of the respective tested drug was added. For “LiHep xxx drug” conditions, PICO70 samplers were emptied as described for LiHep and 15 μl of liquid balanced heparin (final heparin conc. 60 IU/mL blood) and 15 μl of the dissolved tested drug were added. For “PicoSAM xxx drug” conditions, unmodified PICO70 samplers (with gold ball and heparin brick) were used and 15 μl of the dissolved tested drug was added. […] An EDTA tube (BD Vacutainer with spray-coated K2EDTA, 10 ml) and duplicate samples of all conditions of PICO70 syringe samplers were filled by drawing venous blood via a butterfly needle using a sealed VTC (vented tip cap) to fill the otherwise self-aspirating PICO70 samplers with 1.5 mL venous whole blood. Samplers were inverted 8 times immediately after drawing to insure proper anti-coagulation of the samples. The blood samples were mixed gently by hand (samplers without gold ball) or on a SAM mixer (Radiometer Medical ApS) for 15 minutes after drawing the sample. Mixed samples were fixed immediately with 10% formalin solution (1:1 dilution of blood in formalin) for at least 10 minutes and further diluted 1:10 in platelet dilution solution to hemolyze red blood cells (RBCs) to assessed manual platelet count using a hemocytometer. […] Single platelet counts were adjusted for dilution with liquid heparin and or dissolved drug solution to calculate single platelet concentrations.

platelets and WBCs = assay: Wet mount images of stained and hemolyzed blood samples (Example 3); type: cell-based; settings: for WBC aggregates / platelet satellinism (platelets binding to WBCs) / platelets (single or aggregated) in stained wet mounts: PicoSAM samples, tirofiban 1 μM, eptifibatide 20 μM, iloprost 100 nM, EDTA anti-coagulated blood
Description: Venous blood samples were drawn and mixed as described before in Example 1 and used to prepare stained wet mounts images. Blood samples were mixed with a staining and hemolyzing agent (methylene blue and deoxycholic acid, respectively) and incubated at 47° C. in a water bath for 30 seconds. Stained and hemolyzed blood samples were then prepared in wet mount samples on a glass slide and covered with a glass coverslip. Images of stained samples were then acquired with a Leica 750 microscope using a 40× air objective in bright field mode. An image processing software (FIJI, ImageJ) was used to select regions of interest (ROIs) of representative stained WBCs from the images.

platelets [4] = assay: ABX platelet count, automated hematology analyzer (Example 4); type: cell-based; settings: for Mean ABX PLT count: Iloprost 1 μM in PicoSAM, EDTA reference
Description: Blood samples drawn and mixed after 15 minutes as described above were assessed with an automated hematology analyzer (Horiba, ABX Pentra 60C+) (ABX) for complete blood count (CBC) with 5-diff including WBC concentration, platelet concentration, mean platelet volume (MPV), concentrations and fractions of neutrophils, lymphocytes, monocytes, eosinophils and basophils, RBC concentration, hematocrit, hemoglobin concentration, RBC descriptive parameters (MCV, MCH, MCHC, RDW). Samples were prepared from several donors. Measured platelet concentration was used to compare to manually assessed platelet concentrations of iloprost heparin samples (in PICO70 samplers) and EDTA anti-coagulated samples. For control, EDTA samples with no platelet aggregates are used as reference measurement for the measured automated ABX platelet concentration.

OCCN(CCO)c1nc(N2CCCCC2)c2nc(N(CCO)CCO)nc(N3CCCCC3)c2n1 [Dipyridamole, dipyridamole]
platelet count compared to LiHep and PicoSAM controls (platelets [1]): slightly higher

O=C(O)CN(CCN(CC(=O)O)CC(=O)O)CC(=O)O [EDTA, Ethylenediaminetetraacetic acid]
platelet aggregates in microscopic images of blood samples (platelets [2]): prevents platelet activation and maintains single platelets; also recorded: cannot be seen | Mean Manual PLT count (platelets [3]; Donor ID 4): 200 PLT/nl | Mean Manual PLT count (platelets [3]; Donor ID 5): 242 PLT/nl | Mean Manual PLT count (platelets [3]; Donor ID 6): 189 PLT/nl | Mean Manual PLT count (platelets [3]; Donor ID 7): 249 PLT/nl | Mean Manual PLT count (platelets [3]; Donor ID 8): 207 PLT/nl | Mean Manual PLT count (platelets [3]; Donor ID 9): 255 PLT/nl | WBC aggregates (platelets and WBCs): same results | platelet satellinism (platelets binding to WBCs) (platelets and WBCs): same results | platelets (single or aggregated) in stained wet mounts (platelets and WBCs): same results | Mean ABX PLT count (platelets [4]; Donor ID 4): 200 PLT/nl | Mean ABX PLT count (platelets [4]; Donor ID 5): 259 PLT/nl | Mean ABX PLT count (platelets [4]; Donor ID 6): 185 PLT/nl | Mean ABX PLT count (platelets [4]; Donor ID 7): 240 PLT/nl | Mean ABX PLT count (platelets [4]; Donor ID 8): 202 PLT/nl | Mean ABX PLT count (platelets [4]; Donor ID 9): 236 PLT/nl

CC#CCC(C)[C@H](O)/C=C/[C@@H]1[C@H]2C/C(=C/CCCC(=O)O)C[C@H]2C[C@H]1O (stereo partly drawn) [Iloprost, iloprost]
Mean Manual PLT count (platelets [3]; Donor ID 4): 198 PLT/nl | Mean Manual PLT count (platelets [3]; Donor ID 5): 242 PLT/nl | Mean Manual PLT count (platelets [3]; Donor ID 6): 154 PLT/nl | Mean Manual PLT count (platelets [3]; Donor ID 7): 247 PLT/nl | Mean Manual PLT count (platelets [3]; Donor ID 8): 203 PLT/nl | Mean Manual PLT count (platelets [3]; Donor ID 9): 202 PLT/nl | average performance of platelet count compared to EDTA samples as reference, manual count (platelets [3]; PicoSAM 100 nM iloprost, one donor): 97% | average performance of platelet count compared to EDTA samples as reference, manual count (platelets [3]; PicoSAM 1 μM iloprost, eight donors): 93% | WBC aggregation in the blood sample (platelets and WBCs): very low WBC aggregation | WBC aggregates (platelets and WBCs): not platelet satellinism or WBC aggregates | platelet satellinism (platelets binding to WBCs) (platelets and WBCs): not platelet satellinism | platelets (single or aggregated) in stained wet mounts (platelets and WBCs): single platelets | Mean ABX PLT count (platelets [4]; Donor ID 4): 204 PLT/nl | Mean ABX PLT count (platelets [4]; Donor ID 5): 253 PLT/nl | Mean ABX PLT count (platelets [4]; Donor ID 6): 173 PLT/nl | Mean ABX PLT count (platelets [4]; Donor ID 7): 233 PLT/nl | Mean ABX PLT count (platelets [4]; Donor ID 8): 191 PLT/nl | Mean ABX PLT count (platelets [4]; Donor ID 9): 216 PLT/nl | average performance of platelet count compared to EDTA samples as reference, ABX platelet count (platelets [4]; PicoSAM 1 μM iloprost, seven donors): 97% | count of single platelets compared to EDTA reference (platelets [1]): comparable | number of platelet aggregates compared to EDTA control (platelets [1]): no or few

N=C(N)NCCC[C@H](N)C(=O)O [L-Arginine]
count of single platelets compared to EDTA reference (platelets [1]): decreased | number of platelet aggregates compared to EDTA control (platelets [1]): higher | platelet count compared to LiHep and PicoSAM controls (platelets [1]): slightly higher

Clc1ccccc1CN1CCc2sccc2C1 [Ticlopidine, ticlopidine hydrochloride]
count of single platelets compared to EDTA reference (platelets [1]): similar

CCCCS(=O)(=O)N[C@@H](Cc1ccc(OCCCCC2CCNCC2)cc1)C(=O)O [Tirofiban, tirofiban hydrochloride monohydrate]
WBC aggregates (platelets and WBCs): WBC aggregates were also observed | platelet satellinism (platelets binding to WBCs) (platelets and WBCs): platelet satellinism | platelets (single or aggregated) in stained wet mounts (platelets and WBCs): single platelets | count of single platelets compared to EDTA reference (platelets [1]): comparable | number of platelet aggregates compared to EDTA control (platelets [1]): no or few

Heparin
platelet aggregates in microscopic images of blood samples (platelets [2]): allows or even potentiates platelet aggregation; also recorded: showed platelet aggregates

eptifibatide acetate
platelet aggregates in microscopic images of blood samples (platelets [2]): cannot be observed; also recorded: cannot be seen | WBC aggregates (platelets and WBCs): WBC aggregates were also observed | platelet satellinism (platelets binding to WBCs) (platelets and WBCs): platelet satellinism | platelets (single or aggregated) in stained wet mounts (platelets and WBCs): single platelets | count of single platelets compared to EDTA reference (platelets [1]): comparable | number of platelet aggregates compared to EDTA control (platelets [1]): no or few
